Key:
Test in all cases: relative viability (nuclei count vs DMSO), 5 days (fraction); higher = more cells survive
RU-SKI 43 + Pictilisib = compound: CC[C@@H](C)CNCC(=O)N1CCC2=C([C@@H]1COC3=CC=CC(=C3)C)C=CS2 [RU-SKI 43] + CS(=O)(=O)N1CCN(Cc2cc3nc(-c4cccc5[nH]ncc45)nc(N4CCOCC4)c3s2)CC1 [Pictilisib] (partner 1 µM)
Method in brief: (§1)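 Each reported value is a median over duplicate plates. It expresses relative viability: treated-well nuclei count divided by vehicle-well nuclei count. Lung cancer cell lines in 1536-well plates were dosed by pin tool a day after seeding, alone with one drug or with a fixed anchor-drug dose plus five library-drug doses (not always all listed) in √10 steps, and nuclei were counted after 5 days.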

MK-8033 + AZD7762 = compound: Cn1cc(-c2cnc3ccc4ccc(CS(=O)(=O)NCc5ccccn5)cc4c(=O)c3c2)cn1 [MK-8033] + NC(=O)Nc1cc(-c2cccc(F)c2)sc1C(=O)N[C@H]1CCCNC1 [AZD7762] (partner 0.2 µM)
Method in brief: as §1

MK-8033 + Palbociclib = compound: Cn1cc(-c2cnc3ccc4ccc(CS(=O)(=O)NCc5ccccn5)cc4c(=O)c3c2)cn1 [MK-8033] + CC(=O)c1c(C)c2cnc(Nc3ccc(N4CCNCC4)cn3)nc2n(C2CCCC2)c1=O [Palbociclib] (partner 0.5 µM)
Method in brief: as §1

MK-8033 + Trametinib = compound: Cn1cc(-c2cnc3ccc4ccc(CS(=O)(=O)NCc5ccccn5)cc4c(=O)c3c2)cn1 [MK-8033] + CC(=O)Nc1cccc(-n2c(=O)n(C3CC3)c(=O)c3c(Nc4ccc(I)cc4F)n(C)c(=O)c(C)c32)c1 [Trametinib] (partner 0.02 µM)
Method in brief: as §1

Cell Line | relative viability (RU-SKI 43 + Pictilisib; first compound 0.1 µM) | relative viability (RU-SKI 43 + Pictilisib; first compound 0.3162 µM) | relative viability (RU-SKI 43 + Pictilisib; first compound 1 µM) | relative viability (RU-SKI 43 + Pictilisib; first compound 3.162 µM) | relative viability (RU-SKI 43 + Pictilisib; first compound 10 µM) | relative viability (MK-8033 + AZD7762; first compound 0.02 µM) | relative viability (MK-8033 + AZD7762; first compound 0.06325 µM) | relative viability (MK-8033 + AZD7762; first compound 0.2 µM) | relative viability (MK-8033 + AZD7762; first compound 0.6325 µM) | relative viability (MK-8033 + AZD7762; first compound 2 µM) | relative viability (MK-8033 + Palbociclib; first compound 0.02 µM) | relative viability (MK-8033 + Palbociclib; first compound 0.06325 µM) | relative viability (MK-8033 + Palbociclib; first compound 0.2 µM) | relative viability (MK-8033 + Palbociclib; first compound 0.6325 µM) | relative viability (MK-8033 + Palbociclib; first compound 2 µM) | relative viability (MK-8033 + Trametinib; first compound 0.02 µM) | relative viability (MK-8033 + Trametinib; first compound 0.06325 µM) | relative viability (MK-8033 + Trametinib; first compound 0.2 µM) | relative viability (MK-8033 + Trametinib; first compound 0.6325 µM) | relative viability (MK-8033 + Trametinib; first compound 2 µM)
A549 | 0.511 | 0.742 | 0.594 | 0.439 | 0.384 | – | – | – | – | – | – | – | – | – | – | – | – | – | – | –
ABC-1 | 0.676 | 0.842 | 0.753 | 0.701 | 0.772 | 0.86 | 0.709 | 0.475 | 0.874 | 1.06 | 0.664 | 0.733 | 0.591 | 0.724 | 0.646 | – | – | – | – | –
COR-L23 | 0.754 | 0.756 | 0.897 | 0.986 | 0.738 | – | – | – | – | – | 0.239 | 0.29 | 0.27 | 0.304 | 0.326 | 0.607 | 0.576 | 0.602 | 0.572 | 0.523
COR-L 105 | 0.436 | 0.361 | 0.377 | 0.379 | 0.364 | – | – | – | – | – | 0.429 | 0.388 | 0.394 | 0.464 | 0.418 | 0.514 | 0.392 | 0.427 | 0.434 | 0.356
Calu-6 | 0.918 | 1.14 | 0.977 | 0.912 | 0.722 | – | – | – | – | – | – | – | – | – | – | – | – | – | – | –
EBC-1 | 0.345 | 0.283 | 0.429 | 0.316 | 0.196 | – | – | – | – | – | – | – | – | – | – | – | – | – | – | –
IA-LM | 0.353 | 0.321 | 0.397 | 0.385 | 0.404 | – | – | – | – | – | – | – | – | – | – | – | – | – | – | –
NCI-H520 | 0.279 | 0.326 | 0.385 | 0.456 | 0.306 | – | – | – | – | – | 0.209 | 0.231 | 0.184 | 0.254 | 0.205 | 0.615 | 0.565 | 0.56 | 0.795 | 0.629
NCI-H522 | – | – | – | – | – | 0.831 | 0.748 | 0.809 | 0.881 | 0.97 | 0.968 | 0.96 | 1 | 0.968 | 1.18 | 0.72 | 0.701 | 0.669 | 0.657 | 0.766
NCI-H596 | 0.379 | 0.43 | 0.42 | 0.414 | 0.57 | 1.04 | 0.995 | 1.01 | 1.04 | 0.985 | – | – | – | – | – | 0.683 | 0.916 | 0.733 | 0.837 | 0.877
NCI-H661 | 0.432 | 0.409 | 0.484 | 0.355 | 0.414 | – | – | – | – | – | 0.389 | 0.369 | 0.403 | 0.397 | 0.413 | 0.544 | 0.498 | 0.577 | 0.57 | 0.515
NCI-H1299 | 0.823 | 1.05 | 0.709 | 0.789 | 0.686 | – | – | – | – | – | – | – | – | – | – | – | – | – | – | –
NCI-H1563 | 0.682 | 0.653 | 0.689 | 0.701 | 0.646 | – | – | – | – | – | – | – | – | – | – | – | – | – | – | –
NCI-H1648 | – | – | – | – | – | 0.6 | – | 0.533 | 0.702 | 0.769 | 0.243 | – | 0.296 | 0.299 | 0.258 | 0.499 | – | 0.408 | 0.499 | 0.432
NCI-H1650 | 0.561 | 0.579 | 0.616 | 0.739 | 0.382 | – | – | – | – | – | 0.363 | 0.296 | 0.324 | 0.336 | 0.336 | 0.568 | 0.637 | 0.53 | 0.625 | 0.54
NCI-H1703 | 0.253 | 0.209 | 0.263 | 0.273 | 0.219 | 0.109 | 0.117 | 0.124 | 0.108 | 0.12 | – | – | – | – | – | – | – | – | – | –
NCI-H2009 | 0.788 | 1.06 | 0.9 | 0.883 | 0.773 | – | – | – | – | – | 0.251 | 0.23 | 0.249 | 0.214 | 0.304 | 0.282 | 0.255 | 0.215 | 0.291 | 0.238
NCI-H2023 | 0.269 | 0.213 | 0.236 | 0.264 | 0.212 | – | – | – | – | – | 0.39 | 0.279 | 0.236 | 0.214 | 0.174 | 0.552 | 0.511 | 0.453 | 0.475 | 0.366
NCI-H2228 | 0.306 | 0.375 | 0.42 | 0.51 | 0.285 | – | – | – | – | – | 0.815 | 0.729 | 0.807 | 0.621 | 0.82 | 0.278 | 0.403 | 0.435 | 0.341 | 0.582
NCI-H2342 | – | – | – | – | – | 0.636 | 0.438 | 0.454 | 0.454 | 0.646 | 0.487 | 0.548 | 0.623 | 0.492 | 0.526 | 0.83 | 0.773 | 0.827 | 0.999 | 0.83
SK-LU-1 | 0.556 | 0.578 | 0.634 | 0.678 | 0.554 | – | – | – | – | – | 0.411 | 0.373 | 0.373 | 0.367 | 0.383 | 0.484 | 0.482 | 0.437 | 0.445 | 0.468
SK-MES-1 | 0.34 | 0.332 | 0.366 | 0.444 | 0.336 | – | – | – | – | – | 0.333 | 0.299 | 0.305 | 0.359 | 0.309 | 0.44 | 0.478 | 0.539 | 0.583 | 0.534
SW 1573 | 0.519 | 0.544 | 0.581 | 0.648 | 0.455 | – | – | – | – | – | 0.373 | 0.392 | 0.345 | 0.409 | 0.389 | 0.471 | 0.504 | 0.573 | 0.582 | 0.568

Source: the supplement of paper PMC10307832
